Test results as given in BigSolDB 2.1.

Oc1ccc(Cl)c2cccnc12
solubility (mole fraction)
Conditions	278.15 K	283.15 K	288.15 K	293.15 K	298.15 K	303.15 K	308.15 K	313.15 K	318.15 K	323.15 K
in 1,4-dioxane	–	–	0.0556	0.064	0.0751	0.0875	0.102	0.119	0.14	0.161
in 2-ethoxyethanol	0.0161	0.0194	0.0249	0.0284	0.0333	0.0398	0.0466	0.055	0.0646	0.0768
in ethanol	0.00253	0.00304	0.00376	0.00468	0.00564	0.00694	0.00839	0.0101	0.0121	0.0145
in n-propyl acetate	0.015	0.0178	0.0213	0.0251	0.0297	0.0355	0.0416	0.0495	0.0587	0.0696
